Data taken from patent US11156623B2, “Methods of monitoring safety of quercetin compositions” (PUBLIC JOINT STOCK COMPANY “SCIENTIFIC INDUSTRIAL CENTRE …, priority 2018, dated 2021).
In brackets after ≈: the same amount, converted by molar mass. Read-outs that look alike come from different tables or passages of the source.

Legend:
[1] = tested on: HeLa, MCF7, HepG2, A549, LNCaP human cell lines; conditions: cited from earlier work
[2] = tested on: OVCAR3 human cell line; conditions: OVCAR3, 48 h; read-out: EC50, loss of viability; cited from earlier work
[3] = tested on: mice; conditions: cited from earlier work
[4] = tested on: LNCaP human cell line; conditions: 48 h, read-out: EC50, loss of viability; cited from earlier work
[5] = tested on: Pseudokirchneriella subcapitata; conditions: cited from earlier work
[6] = cited from earlier work
[7] = tested on: Daphnia magna; conditions: cited from earlier work; for EC50 at 48 h: Daphnia magna mobility
[8] = tested on: Daphnia magna; experiment: Daphnia magna mobility assay; conditions: 48 h
Protocol: Toxicity is determined using a Daphnia magna mobility assay as described (Kamaya et al., 2005). Neonates (<24 h old) from 2-3-week-old mothers are placed in a 50 ml glass beaker containing 40 ml of a test solution. A sample of solid form quercetin (10%)/PVP (90%) composition containing 2,4,6-trihydroxybenzoic acid is resuspended and introduced at increasing dilutions. All experiments for exposure and controls without chemicals are made in four replicates and performed at 21±0.3° C. under 16 h light:8 h dark photoperiod. Immobility is used as the endpoint for determining acute toxicity; the daphnids showing no movement within 15 s after gentle stirring are defined to be immobile. After 24 and 48 h, the number of immobile daphnids is recorded to determine the concentration able to achieve 50% immobilization and it is indicated as EC50.

[9] = human
Protocol: Potential human toxicity of 2,4,6-THBA can be related to its toxicity based on studies with Daphnia. Toxicity of various compounds in Daphnia (48 h immobilization test) correlated to toxicity in humans (determined as reference dose for human oral exposure, RfD) (Martins et al., 2007).

[10] = tested on: cyclin-dependent kinases CDK1, 2, 4, 6; conditions: purified CDKs in vitro; cited from earlier work
[11] = tested on: HCT-116 human cells; conditions: cited from earlier work
[12] = tested on: Pseudokirchneriella subcapitata
[13] = humans, cited from earlier work
[14] = Storage stability: degradation products by liquid chromatography with UV detection; format: physicochemical
Protocol: (§1) Methods to detect PCA are known in the art, such as by liquid chromatography with UV detection. For example, a solution containing PCA is subjected to liquid chromatography using gradient elution with the following conditions: stainless steel column with stationary phase end-capped octadecylsilyl silica for chromatography R; size (150×3.9) mm, particle size 5 micron. Mobile phase A: 0.1% phosphoric acid v/v; mobile phase B—methanol; column temperature: 25° C.; flow rate: 1 mL/min.; UV detection at 254 nm. Relative retention time is 1.00 for quercetin, and 0.34 for PCA (FIG. 2). Content of PCA relative to quercetin can be calculated by formula (in percentage): […]
as §1, with “detect 2,4,6-THBA” for “detect PCA”, “containing 2,4,6-THBR” for “containing PCA”, “for 2,4,6-trihydroxybenzoic acid” for “for PCA”, “of 2,4,6-trihydroxybenzoic acid” for “of PCA”
Methods to detect DB-DBA are known in the art, such as by liquid chromatography with UV detection. For example, a solution containing DB-DBA is subjected to liquid chromatography using gradient elution with the following conditions: stainless steel column with stationary phase end-capped octadecylsilyl silica for chromatography R; size (150×3.9) mm, particle size 5 microns. Mobile phase A: 0.1% phosphoric acid v/v; mobile phase B—methanol; column temperature: 25° C.; flow rate: 1 mL/min.; UV detection at 254 nm. Relative retention time is 1.00 for quercetin, and 0.77 for DB-DBA (FIG. 15). Content of DB-DBA relative to quercetin can be calculated by formula (in percentage):
For test solution content of one vial with 70 ml of 96% ethanol was transferred to a 100 ml volumetric flask, diluted to 100 ml with the same solvent and mixed. For reference solution a, 1.0 ml of test solution was placed in a 100 ml volumetric flask, diluted to 100 ml with 96% ethanol and mixed. For reference solution b, 10.0 mg working standard of quercetin for system suitability (containing isorhamnetin and kaempferol, PJSC SIC “Borshchahivskiy CPP”, Kiev, Ukraine) was dissolved in 30 ml of 96% ethanol, diluted to 50 ml with the same solvent and mixed. Chromatography was performed on a using a Dionex UltiMate 3000 HPLC system (Thermo Fisher Scientific, Inc., Waltham, Mass.) with DAD and MS detectors (3200 QTRAP System (AB Sciex LLC, Framingham, Mass.)) connected consecutively using gradient elution with the following conditions: • stainless steel column with stationary phase end-capped octadecylsilyl silica for chromatography; size (150×3.9) mm, particle size 5 microns • Mobile phase A: 1.0 mL of phosphoric acid diluted to 1000 mL with water for chromatography, mixed and degassed; • Mobile phase B: methanol gradient grade; • Column temperature: 25° C. • Flow rate: 1 mL/min.; • Detection at 254 nm; • injection volume: 10 microL.
Inject test solution and reference solution (a). Peaks of quercetin and kaempferol as references were determined by relative retention times of 1.00 and 1.11
Vials containing (group 1) a lyophilized quercetin (10%)/PVP (90%) composition in an air atmosphere and (group 2) vials containing a lyophilized quercetin (10%)/PVP (90%) composition in a nitrogen gas atmosphere were stored at room temperature. Samples were obtained for each group at the indicated time points (0, 3, 6, 9, 12, 18, 24, and 36 months) and assayed for content of protocatechuic acid by chromatography as described above. Data from 3 independent experiments are shown. […]

[15] = tested on: MDA-MB231 human breast cancer cells; experiment: Cell viability assay (CellTiter 96 AQueous One) in MDA-MB231; format: cell-based; conditions: MDA-MB-231, MDA-MB231, 72 h
Protocol: Toxicity of DB-DBA (2-(3,4-dihydroxybenzoyloxy)-4,6-dihydroxybenzoic acid) was assessed in 96-well plate (Thermo Fisher, Walthman, Mass.) on 1×10^3 MDA-MB231 human breast cancer cells/well. DB-DBA was diluted in to concentrations from 500 to 0 ug/ml. The plate was incubated at 37° C. for 72 h. Cell viability was measured in a CellTiter 96® AQueous One Solution Cell Proliferation Assay (Promega, Madison, Wis.), according to the manufacturer's protocol. The absorbance at 490 nm is determined spectrophotometrically and IC50 was calculated to be 75 microgram/ml.

[16] = tested on: human lymphoblastoid TK6 cells; conditions: cited from earlier work
[17] = tested on: human lymphoblastoid cell line K562; conditions: cited from earlier work
[18] = tested on: retinal pigmented epithelial cells (ARPE-19); conditions: ARPE-19 normal cell line; cited from earlier work
[19] = 36 months storage at 20-25° C., air

O=C(O)c1ccc(O)c(O)c1 [PCA, 3,4-dihydroxybenzoic acid]
concentration causing apoptosis (DNA fragmentation, caspase 3 activation) [1]: 5 to 8 µM | EC50 [2]: 5 µM | hepatotoxicity (increase in ALT) ([3]; acute, 50 mg/kg intraperitoneally): the same effect | hepatotoxicity (increase in ALT) ([3]; subchronic, 0.1% in drinking water for 60 days): causes hepatotoxicity | EC50 [4]: 5 µM

O=C(O)c1ccccc1 [benzoic acid]
EC50, suppression of growth [5]: 36 µg/mL | RfD / toxicity in humans [6]: 1 mg/kg/day | EC50 at 48 h [7]: 860 µg/mL (≈ 7040 µM)

O=C(O)c1c(O)cc(O)cc1O [2,4,6-THBA, 2,4,6-trihydroxybenzoic acid]
toxicity relative to benzoic acid [8]: about 500 times | EC50, suppression of growth [5]: 0.546 µg/mL | RfD of 2,4,6-THBA relative to benzoic acid [9]: more than 50 times | RfD, estimated from Daphnia EC50 [9]: 0.02 mg/kg/day | toxicity of 2,4,6-THBA relative to quercetin [9]: 700 times | inhibitory effect on cyclin-dependent kinases CDK1, 2, 4, 6 [10]: strong inhibitory effect | cytotoxicity compared to other salicylic acid metabolites [11]: more cytotoxic | toxicity relative to benzoic acid and its other derivatives [12]: 70 times | LC50 in 48 h ([7]; Daphna magna immobilization test): 1.7 µg/mL (≈ 9.99 µM) | EC50 at 48 h [7]: 1.7 µg/mL (≈ 9.99 µM)

O=c1c(O)c(-c2ccc(O)c(O)c2)oc2cc(O)cc(O)c12 [quercetin, 2-(3,4-dihydroxyphenyl)-3,5,7-trihydroxy-4H-chromen-4-one]
elimination half-life ([13]; after ingestion in foods or supplements): 1 to 2 h | bioavailability of quercetin [13]: 0-50% | RfD / toxicity in humans [6]: more than 15 mg/kg/day | decrease of 2,4,6-THBA concentration by air substitution with nitrogen gas [14]: 7 fold | protocatechuic acid accumulation ([14]; 3 months storage at 20-25° C., air): about 0.1 % (w/w) protocatechuic acid/quercetin | 2,4,6-THBA accumulation ([14]; 6 months storage at 20-25° C., air): about 0.1 % (w/w) 2,4,6-trihydroxybenzoic acid/quercetin | protocatechuic acid formation ([14]; 12 months storage, ambient conditions): above 0.4 % of quercetin content | 2,4,6-THBA formation ([14]; 24 months storage, ambient conditions, air): 0.33 % of quercetin content | 2,4,6-THBA accumulation [14, 19]: about 0.5 % 2,4,6-trihydroxybenzoic acid/quercetin | protocatechuic acid accumulation [14, 19]: about 0.9 % protocatechuic acid/quercetin | 2,4,6-THBA concentration relative to LC50 in 48 h Daphnia immobilization test (lower) ([14]; Daphnia): more than 3 times | 2,4,6-THBA concentration relative to LC50 in 48 h Daphnia immobilization test (higher) ([14]; Daphnia, 24 months): about 2 times | 2,4,6-THBA concentration ([14]; air substituted with nitrogen gas): 0.5 mg/L | 2,4,6-THBA formation ([14]; air substituted with nitrogen gas (FIG. 19)): 0.05% | rate of 2,4,6-THBA accumulation ([14]; room temperature, air): ~0.15 % of quercetin (w/w) per 12 months | rate of DB-DBA accumulation ([14]; room temperature, air): ~1.25 % of quercetin (w/w) per 12 months

O=C(Oc1cc(O)cc(O)c1C(=O)O)c1ccc(O)c(O)c1 [DB-DBA, 2-(3,4-dihydroxybenzoyloxy)-4,6-dihydroxybenzoic acid]
IC50 [15]: 75 µg/mL (≈ 245 µM)

O=C(O)c1cc(O)c(O)c(OC(=O)c2cc(O)c(O)c(O)c2)c1 [DGA, digallic acid]
IC50 by MTT assay ([16]; Bhouri et al., 2012a): 8.5 microgram/ml | concentrations causing DNA fragmentation, caspase-3/8 activation and PARP cleavage ([16]; TK6): 2.5-10 microgram/ml | concentrations causing DNA fragmentation [17]: 200-800 microgram/ml | IC50, cytotoxicity [18]: 47 microgram/mil
